The values that follow come from patent publication US20060229254A1, “Compounds having prolyl oligopeptidase inhibitory activity” (priority 2003, published 2006).

T1 sequence (P23687 whole entry): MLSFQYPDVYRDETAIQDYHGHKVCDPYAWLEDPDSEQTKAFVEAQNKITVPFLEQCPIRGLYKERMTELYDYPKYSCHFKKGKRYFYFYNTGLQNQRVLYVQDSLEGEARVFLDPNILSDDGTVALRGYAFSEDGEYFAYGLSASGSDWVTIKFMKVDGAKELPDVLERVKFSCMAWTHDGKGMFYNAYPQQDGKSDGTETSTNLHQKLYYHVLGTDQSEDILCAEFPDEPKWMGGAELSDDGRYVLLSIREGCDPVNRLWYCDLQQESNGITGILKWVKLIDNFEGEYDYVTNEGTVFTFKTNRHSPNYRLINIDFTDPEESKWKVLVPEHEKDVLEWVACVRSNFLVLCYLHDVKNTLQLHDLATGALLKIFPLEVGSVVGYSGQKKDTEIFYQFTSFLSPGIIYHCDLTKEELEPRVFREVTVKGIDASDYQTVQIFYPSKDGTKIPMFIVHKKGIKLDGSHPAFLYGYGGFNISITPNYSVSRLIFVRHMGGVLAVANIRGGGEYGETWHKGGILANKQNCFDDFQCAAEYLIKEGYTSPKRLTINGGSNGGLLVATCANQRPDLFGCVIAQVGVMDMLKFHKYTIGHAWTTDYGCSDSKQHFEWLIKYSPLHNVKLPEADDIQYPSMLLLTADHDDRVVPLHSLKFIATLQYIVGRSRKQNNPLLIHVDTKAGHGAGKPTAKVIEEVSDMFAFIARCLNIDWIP

This test concerns the target T1, pig brain prolyl oligopeptidase (Sus scrofa, UniProt P23687).
T1 construct: The brains were homogenized with a glass-teflon homogenisator in 3 volumes (w/v) of ice-cold 0.1 M sodium-potassium phosphate buffer; from tissue; host or cells: pig brain (whole brain excluding cerebellum and most of the brain stem), 10000 g supernatant of the homogenate
Kind of test: Inhibition of pig brain prolyl oligopeptidase (Suc-Gly-Pro-AMC fluorometric microplate assay). The class given is biochemical. To be noted: pig brain supernatant, Suc-Gly-Pro-AMC substrate, 30 min preincubation, 30° C., pH 7.0. As for the experimental part:
The inhibitory effect of the novel compounds on POP activity of pig brain was determined with a method based on that described by Toide et al. (Toide, K, Iwamoto, Y., Fujiwara. T., Abe, H., J. Pharmacol. Exp. Ther., 1995, 274, 1370-1378) for the rat enzyme.
The whole pig brains, excluding cerebellum and most of the brain stem, of three pigs were placed in liquid nitrogen within 30 min from killing and stored at −80° C. until homogenized. The brains were homogenized with a glass-teflon homogenisator in 3 volumes (w/v) of ice-cold 0.1 M sodium-potassium phosphate buffer (pH 7.0) and the homogenates were centrifuged for 20 min at 4° C. at 10000 g. The supernatants were collected, pooled and stored in small aliquots at −80° C. until used. The supernatant was thawn in ice just before activity assay and diluted in a ratio 1:2 with homogenisation buffer (=enzyme preparation).
In the microplate assay procedure, 10 μl of enzyme preparation was preincubated with 460 μl of 0.1 M sodium-potassium phosphate buffer (pH 7.0) and 5 μl of a solution of novel compound dissolved in DMSO and diluted with 0.1 M sodium-potassium phosphate buffer at 30° C. for 30 min. The controls contained 10 μl enzyme preparation and 465 μl of 0.1 M sodium-potassium phosphate buffer (pH 7.0). The reaction was initiated by adding 25 μl of 4 mM Suc-Gly-Pro-AMC (AMC: 7-amido-4-methylcoumarin) dissolved in 0.1 M sodium-potassium phosphate buffer (pH 7.0), and the mixture was incubated at 30° C. for 60 min. The reaction was terminated by adding 500 μl of 1 M sodium acetate buffer (pH 4.2).
Formation of 7-amido-4-methylcoumarin was determined fluorometrically with microplate fluorescence reader (excitation at 360 nm and emission at 460 nm). The final concentration of novel compounds in the assay mixture varied from 10^−12 M to 10^−4 M.
The prolyl oligopeptidase activity was calculated with the following formula in the presence of various concentrations of novel compounds. To reveal the inhibitory potency of the novel compound, activities (% of control) were plotted against the log concentration of the compound, and the IC50 value was determined by non-linear regression utilizing GraphPad Prism software. Activity (% of control)=a/b×100, where
a=fluorescence intensity in the presence of a novel compound
b=fluorescence intensity without a novel compound (control)
Broadly, the IC50 is the concentration that inhibits the measured activity by half. The low end stands for greater potency, the high end for weaker potency. The molecule `O=C(NCc1ccccc1)C1=CCCC1C(=O)N1CCCC1` (stereo not shown) [Example 3, 2-Benzylcarbamoyl-cyclopent-2-ene-carboxylic acid pyrrolidine amide] came in with an IC50 of 9 nM.
With “4-Phenylbutanoyl-5(R)-methyl-L-prolyl-pyrrolidine [Example 7]” the figure was 0.71 nM; with `N#C[C@@H]1CCCN1C(=O)C1CCC=C1C(=O)NCc1ccccc1` (stereo partly drawn) [Example 1, 2-(Benzylcarbamoyl)-cyclopent-2-ene-carboxylic acid 2(S)-cyanopyrrolidine amide], 0.38 nM; with `C[C@@H]1CC[C@@H](C(=O)N2CCC[C@H]2C(=O)CO)N1C(=O)CCCc1ccccc1` [Example 8, 4-Phenylbutanoyl-5(R)-methyl-L-prolyl-2(S)-(hydroxyacetyl)-pyrrolidine], 0.15 nM.
With `O=C(Cc1ccccc1)C1=CCCC1C(=O)N1CCCC1` (stereo not shown) [Example 4, 2-Benzylcarbonyl-cyclopent-2-ene-carboxylic acid pyrrolidine amide] the figure was 7.7 nM; with “4-Phenylbutanoyl-5(S)-methyl-L-prolyl-pyrrolidine [Example 14]”, 1.4 nM; with `CC(C)(C)OC(=O)N1[C@H](C(C)(C)C)CC[C@H]1C(=O)N1CCCC1` [Example 16, Boc-5(S)-tert-butyl-L-prolyl-pyrrolidine], 9.2 nM.
As to `CC(C)(C)OC(=O)N1[C@H](C(=O)N2CCCC2)CC[C@@H]1C(C)(C)C` [Example 9, Boc-5(R)-tert-butyl-L-prolyl-pyrrolidine], it took 2.2 nM to reach half-maximal inhibition (IC50).
With `N#C[C@@H]1CCCN1C(=O)C1CCC=C1C(=O)CCCc1ccccc1` (stereo partly drawn) [Example 5, 2-(4-Phenylbutanoyl)-cyclopent-2-ene-carboxylic acid 2(S)-cyanopyrrolidine amide] the figure was 0.21 nM; with `O=C(NCc1ccccc1)C1=CCCC1C(=O)N1CCC[C@H]1C(=O)CO` (single isomer, unassigned) [Example 2], 0.32 nM; with `C[C@H]1CC[C@@H](C(=O)N2CCC[C@H]2C(=O)CO)N1C(=O)CCCc1ccccc1` [Example 15, 4-Phenylbutanoyl-5(S)-methyl-L-prolyl-2(S)-(hydroxyacetyl)-pyrrolidine], 0.17 nM.
With `CC(C)(C)[C@H]1CC[C@@H](C(=O)N2CCCC2)N1C(=O)CCCc1ccccc1` [Example 11, 4-Phenylbutanoyl-5(R)-tert-butyl-L-prolyl-pyrrolidine] the figure was 1.6 nM; with `CC(C)(C)[C@H]1CC[C@@H](C(=O)N2CCC[C@H]2C(=O)CO)N1C(=O)CCCc1ccccc1` [Example 12, 4-Phenylbutanoyl-5(R)-tert-butyl-L-prolyl-2(S)-(hydroxyacetyl)-pyrrolidine], 0.24 nM.
